Experiment: solvent given as SMILES

## CC(F)F
In CC(C)(C)O
  solvation free energy, 298 K: -5.94 kJ/mol
In CC(C)CCO
  solvation free energy, 298 K: -5.44 kJ/mol
In CC(C)CO
  solvation free energy, 298 K: -5.65 kJ/mol
In CC(C)O
  solvation free energy, 298 K: -6.28 kJ/mol
In CCC(C)(C)O
  solvation free energy, 298 K: -5.69 kJ/mol
In CCC(C)CO
  solvation free energy, 298 K: -5.15 kJ/mol
In CCC(C)O
  solvation free energy, 298 K: -5.52 kJ/mol
In CCC(O)CC
  solvation free energy, 298 K: -5.19 kJ/mol
In CCCC(C)O
  solvation free energy, 298 K: -5.06 kJ/mol
In CCCCCCCC(=O)OCC(COC(=O)CCCCCCC)OC(=O)CCCCCCC
  solvation free energy, 298 K: -5.73 kJ/mol
In CCCCCCCCC
  solvation free energy, 298 K: -4.52 kJ/mol
In CCCCCCCCO
  solvation free energy, 298 K: -4.48 kJ/mol
In CCCCCO
  solvation free energy, 298 K: -5.36 kJ/mol
In CCCCO
  solvation free energy, 298 K: -5.69 kJ/mol
In CCCO
  solvation free energy, 298 K: -6.23 kJ/mol
In CN1CCCC1=O
  solvation free energy, 298 K: -8.45 kJ/mol
In CN(C)C=O
  solvation free energy, 298 K: -8.83 kJ/mol
In CO
  solvation free energy, 298 K: -7.99 kJ/mol
In Cc1ccc(C)cc1
  solvation free energy, 298 K: -6.78 kJ/mol
In Cc1cccc(C)c1
  solvation free energy, 298 K: -6.82 kJ/mol
In Cc1ccccc1C
  solvation free energy, 298 K: -6.78 kJ/mol
In O
  solvation free energy, 298 K: -0.502 kJ/mol

## O=C(O)c1ccc(Cl)c([N+](=O)[O-])c1
In C1CCOC1
  solvation free energy, 298 K: -59.2 kJ/mol
In C1COCCO1
  solvation free energy, 298 K: -59.2 kJ/mol
In CC(C)(C)O
  solvation free energy, 298 K: -55.8 kJ/mol
In CC(C)CCO
  solvation free energy, 298 K: -54.7 kJ/mol
In CC(C)CO
  solvation free energy, 298 K: -54.1 kJ/mol
In CC(C)O
  solvation free energy, 298 K: -55.9 kJ/mol
In CCC(C)O
  solvation free energy, 298 K: -55.4 kJ/mol
In CCCC(=O)OC
  solvation free energy, 298 K: -54.4 kJ/mol
In CCCC(C)O
  solvation free energy, 298 K: -55.3 kJ/mol
In CCCCCCCCCCO
  solvation free energy, 298 K: -54.1 kJ/mol
In CCCCCCCCO
  solvation free energy, 298 K: -54.6 kJ/mol
In CCCCCCCO
  solvation free energy, 298 K: -54.8 kJ/mol
In CCCCCCO
  solvation free energy, 298 K: -55 kJ/mol
In CCCCCO
  solvation free energy, 298 K: -55.1 kJ/mol
In CCCCO
  solvation free energy, 298 K: -55.4 kJ/mol
In CCCCOC(C)=O
  solvation free energy, 298 K: -54.6 kJ/mol
In CCCO
  solvation free energy, 298 K: -55.8 kJ/mol
In CCCOC(C)=O
  solvation free energy, 298 K: -53.8 kJ/mol
In CCO
  solvation free energy, 298 K: -56.6 kJ/mol
In CCOC(C)=O
  solvation free energy, 298 K: -55.7 kJ/mol
In CCOCC
  solvation free energy, 298 K: -54.7 kJ/mol
In CN(C)C=O
  solvation free energy, 298 K: -59.1 kJ/mol
In COC(C)=O
  solvation free energy, 298 K: -56.1 kJ/mol
In O
  solvation free energy, 298 K: -41.2 kJ/mol

## CC(C)=O
In Brc1cccc2ccccc12
  solvation free energy, 298 K: -13.9 kJ/mol
In C1CCOC1
  solvation free energy, 298 K: -16.3 kJ/mol
In C1COCCO1
  solvation free energy, 298 K: -16.2 kJ/mol
In CC#N
  solvation free energy, 298 K: -18.1 kJ/mol
In CC(=O)N(C)C
  solvation free energy, 298 K: -16.5 kJ/mol
In CC(=O)OCc1ccccc1
  solvation free energy, 298 K: -15.4 kJ/mol
In CC(C)CC(C)(C)C
  solvation free energy, 298 K: -10.2 kJ/mol
In CC(C)CCCC(C)CCCC(C)CCCCC(C)CCCC(C)CCCC(C)C
  solvation free energy, 298 K: -9.92 kJ/mol
In CC(C)O
  solvation free energy, 298 K: -14.1 kJ/mol
In CC=O
  solvation free energy, 298 K: -17 kJ/mol
In CCC(C)=O
  solvation free energy, 298 K: -16.7 kJ/mol
In CCCCCC
  solvation free energy, 298 K: -11.2 kJ/mol
In CCCCCCC
  solvation free energy, 298 K: -10.8 kJ/mol
In CCCCCCCC
  solvation free energy, 298 K: -10.6 kJ/mol
In CCCCCCCCC=CCCCCCCCC(=O)OCC(COC(=O)CCCCCCCC=CCCCCCCCC)OC(=O)CCCCCCCC=CCCCCCCCC
  solvation free energy, 298 K: -12.8 kJ/mol
In CCCCCCCCCC
  solvation free energy, 298 K: -10.3 kJ/mol
In CCCCCCCCCCCCCCCC
  solvation free energy, 298 K: -9.62 kJ/mol
In CCCCCCCCO
  solvation free energy, 298 K: -13.1 kJ/mol
In CCCCCO
  solvation free energy, 298 K: -14.2 kJ/mol
In CCCCCl
  solvation free energy, 298 K: -15.1 kJ/mol
In CCCCN(C=O)CCCC
  solvation free energy, 298 K: -14.9 kJ/mol
In CCCCO
  solvation free energy, 298 K: -14.7 kJ/mol
In CCCCOCCCC
  solvation free energy, 298 K: -12.7 kJ/mol
In CCN1CCCC1=O
  solvation free energy, 298 K: -15.8 kJ/mol
In CCN(CC)C(C)=O
  solvation free energy, 298 K: -16 kJ/mol
In CCNC(C)=O
  solvation free energy, 298 K: -14.9 kJ/mol
In CCNC=O
  solvation free energy, 298 K: -15.6 kJ/mol
In CCO
  solvation free energy, 298 K: -15.8 kJ/mol
In CCOC(=O)c1ccccc1C(=O)OCC
  solvation free energy, 298 K: -14.8 kJ/mol
In CCOC(C)=O
  solvation free energy, 298 K: -16.3 kJ/mol
In CCOCC
  solvation free energy, 298 K: -14.7 kJ/mol
In CCOP(=O)(OCC)OCC
  solvation free energy, 298 K: -15.2 kJ/mol
In CI
  solvation free energy, 298 K: -16.4 kJ/mol
In CN1CCCC1=O
  solvation free energy, 298 K: -16.5 kJ/mol
In CN1CCCCC1=O
  solvation free energy, 298 K: -16 kJ/mol
In CN1CCN(C)C1=O
  solvation free energy, 298 K: -15.1 kJ/mol
In CN(C)C=O
  solvation free energy, 298 K: -16.8 kJ/mol
In CNC(C)=O
  solvation free energy, 298 K: -15.4 kJ/mol
In CNC=O
  solvation free energy, 298 K: -16 kJ/mol
In CO
  solvation free energy, 298 K: -16.9 kJ/mol
In COC(C)=O
  solvation free energy, 298 K: -16.8 kJ/mol
In COP(=O)(OC)OC
  solvation free energy, 298 K: -16.6 kJ/mol
In CS(C)=O
  solvation free energy, 298 K: -15.4 kJ/mol
In Cc1ccc(C)cc1
  solvation free energy, 298 K: -14.2 kJ/mol
In Cc1cccc(C)c1
  solvation free energy, 298 K: -14.2 kJ/mol
In Cc1ccccc1C
  solvation free energy, 298 K: -14.1 kJ/mol
In ClC(Cl)(Cl)Cl
  solvation free energy, 298 K: -13.6 kJ/mol
In ClC(Cl)Cl
  solvation free energy, 298 K: -19.5 kJ/mol
In ClCCCl
  solvation free energy, 298 K: -17.9 kJ/mol
In ClCCl
  solvation free energy, 298 K: -19.3 kJ/mol
In Clc1ccccc1
  solvation free energy, 298 K: -15.2 kJ/mol
In N#CCCOCCC#N
  solvation free energy, 298 K: -16.2 kJ/mol
In NC=O
  solvation free energy, 298 K: -15.8 kJ/mol
In O
  solvation free energy, 298 K: -16.1 kJ/mol
In O=C1CCCCC1
  solvation free energy, 298 K: -15.9 kJ/mol
In O=CN1CCOCC1
  solvation free energy, 298 K: -15.3 kJ/mol
In OCCOCCO
  solvation free energy, 298 K: -13.9 kJ/mol
In S=C=S
  solvation free energy, 298 K: -14.2 kJ/mol
In [2H]O[2H]
  solvation free energy, 298 K: -16 kJ/mol
In c1ccc2ncccc2c1
  solvation free energy, 298 K: -15.1 kJ/mol
In c1ccccc1
  solvation free energy, 298 K: -15.9 kJ/mol

Source: the CombiSolv-Exp solvation set (Vermeire and Green 2021)
